Values of other authors, collected in patent US6569404B1, “Phase shift colloids as ultrasound contrast agents” (priority 1993, dated 2003).

Conditions: Chemical List of low boiling liquids, Example 45; cited from earlier work

Compound	Boiling Point
Cc1cc2ccccc2c2cc3ccccc3cc12 [1,2-Benzanthracene, 4-methyl]	1.0 degrees Celcius
C=C=CC [1,2-Butadiene]	10.8 degrees Celcius
FC(F)=C(F)C(F)=C(F)F [1,3-Butadiene, hexafluoro]	6.0 degrees Celcius
C=CC=C [1,3-Butadiene]	−4.4 degrees Celcius
C#CCCC#CC [1,5-Heptadiyne]	26.0 degrees Celcius
FC(F)=C(F)C(F)(F)C(F)(F)F [1-Butene, perfluoro]	4.8 degrees Celcius
C=CC#CCCCCC [1-Nonene-3-yne]	27.0 degrees Celcius
FC(F)=C(F)C(F)(F)C(F)(F)C(F)(F)F [1-Pentene, perfluoro]	29.0 degrees Celcius
C/C=C/C [2-Butene (trans)]	0.9 degrees Celcius
FC(=C(F)C(F)(F)F)C(F)(F)F [2-Butene, octafluoro]	1.2 degrees Celcius
FC(=C(F)C(F)(F)F)C(F)(F)F [2-Butene, perfluoro]	0.0 degrees Celcius
FC(F)(F)C#CC(F)(F)F [2-Butyne, perfluoro]	−24.6 degrees Celcius
O=C(C(F)(F)F)C(F)(F)F [Acetone, hexafluoro]	−28.0 degrees Celcius
CC(=O)F [Acetyl fluoride]	20.8 degrees Celcius
C#CC(C)C [Acetylene, isopropyl]	0.0 degrees Celcius
FC(F)=C=C(F)F [Allene, tetrafluoro]	−38.0 degrees Celcius
C=C=C [Allene]	−34.5 degrees Celcius
[Ar] [Argon]	−189.4 degrees Celcius
FC(F)(F)N=NC(F)(F)F [Azomethane, hexafluoro]	−31.6 degrees Celcius
CN=NC [Azomethane]	1.5 degrees Celcius

Compound	Boiling Point
O=C(Cl)c1c(Cl)c(Cl)c(Cl)c(Cl)c1Cl [Benzoyl chloride, pentachloro]	5.0 degrees Celcius
CCCCON=O [Butyl nitrite]	−77.8 degrees Celcius
O=C=O [Carbon dioxide]	−78.6 degrees Celcius
O=C=C=C=O [Carbon suboxide]	6.8 degrees Celcius
O=C=S [Carbonyl sulfide]	−50.0 degrees Celcius
CC=CC#N [Crotononitrile]	12.0 degrees Celcius
FC1=C(F)C(F)(F)C1(F)F [Cyclobutene, perfluoro]	3.0 degrees Celcius
CCC1CC1 [Cyclopropane, ethyl]	34.5 degrees Celcius
CC1CC1 [Cyclopropane, methyl]	4.0 degrees Celcius
C1CC1 [Cyclopropane]	−32.7 degrees Celcius
FC(F)(F)C(F)(F)C(F)(F)C(F)(F)F [Decaflurobutane]	4.0 degrees Celcius
C#CC#C [Diacetylene]	22.0 degrees Celcius
FC(F)(F)SSC(F)(F)F [Dimethyl disulfide, hexafluoro]	34.6 degrees Celcius
CCN(C)C [Dimethyl ethyl amine]	36.0 degrees Celcius
COC.Cl [Dimethyloxonium chloride]	−2.0 degrees Celcius
FC(F)OCC(F)(F)F [Ether, difluoromethyl 2,2,2-trifluoroethyl]	28.0 degrees Celcius
FN(F)C(F)(F)C(F)(F)F [Ethyl amine, perfluoro]	−35.0 degrees Celcius
CCN [Ethyl amine]	16.6 degrees Celcius
CCNC [Ethyl methyl amine]	36.7 degrees Celcius
CCOC [Ethyl methyl ether]	10.8 degrees Celcius

Compound	Boiling Point
CCON=O [Ethyl nitrite]	16.0 degrees Celcius
C=COCC [Ethyl vinyl ether]	35.0 degrees Celcius
C=CCC [Example 1-Butene, 1-Butene]	−6.3 degrees Celcius
C#CCC [Example 1-Butyne, 1-Butyne]	8.1 degrees Celcius
C=CCCC [Example 1-Pentene, 1-Pentene]	30.0 degrees Celcius
CC#CC [Example 2-Butyne, 2-Butyne]	27.0 degrees Celcius
COC=O [Formic acid, methyl ester]	31.5 degrees Celcius
C=C1C=CC=C1 [Fulvene]	7.0 degrees Celcius
C=C(C)C [Isobutylene]	−6.9 degrees Celcius
C=CC(=C)C [Isoprene]	34.0 degrees Celcius
[Kr] [Krypton]	−153.0 degrees Celcius
O=S(=O)(Cl)C(F)(F)F [Methane sulfonyl chloride, trifluoro]	31.6 degrees Celcius
O=NC(F)(F)Br [Methane, bromo difluoro nitroso]	−12.0 degrees Celcius
FCBr [Methane, bromo fluoro]	19.0 degrees Celcius
FC(Cl)Br (stereo not drawn) [Methane, bromo-chloro-fluoro]	36.0 degrees Celcius
FC(F)(F)Br [Methane, bromo-trifluoro]	−57.9 degrees Celcius
O=[N+]([O-])C(F)(F)Cl [Methane, chloro difluoro nitro]	25.0 degrees Celcius
FCCl [Methane, chloro fluoro]	−9.1 degrees Celcius
FC(F)(F)Cl [Methane, chloro trifluoro]	−81.4 degrees Celcius
FC(F)Cl [Methane, chloro-difluoro]	−40.8 degrees Celcius

Same assay, conditions: boiling point under standard pressure conditions; chemical list arranged by total atoms; cited from earlier work

Compound	Boiling Point
CC(C(F)(F)F)C(F)(F)F [1,1,1,3,3,3-hexafluoro-2-methyl-propane]	21.5 degrees Celcius
FCCC(F)(F)F [1,1,1,3-tetrafluoro-propane]	29.4 degrees Celcius
CCC(F)(F)F [1,1,1-trifluoro propane]	−13 degrees Celcius
COCC(F)(F)F [1,1,1-trifluoro-2-methoxy-ethane]	31 degrees Celcius
CCCC(F)(F)F [1,1,1-trifluoro-butane]	16.74 degrees Celcius
CCC=C(F)F [1,1-difluoro-but-1-ene]	3.71 degrees Celcius
C=CC=C(F)F [1,1-difluoro-buta-1,3-diene]	3.5 degrees Celcius
FC(F)(Cl)C(F)(F)Cl [1,2-dichloro-tetrafluoro-ethane]	3.5 degrees Celcius
CCC(C)(F)F [2,2 difluoro-butane]	30.92 degrees Celcius
C=C(C)C(F)F [3,3 difluoro-2-methyl-propene]	28.1 degrees Celcius
C=C(C)C(F)(F)F [3,3,3-trifluoro-2-methyl-propene]	6 degrees Celcius
CC[C@H](C)CF [(−)(S)-1-fluoro-2-methyl-butane]	14.1 degrees Celcius
CC(C)C(F)(F)F [Example 2-Trifluoromethyl-propane, 2-Trifluoromethyl-propane]	13 degrees Celcius

Same assay, conditions: dispersed phase of emulsions of Example 18; cited from earlier work

Compound	Boiling Point
FC(F)(F)C(F)(F)C(F)(F)C(F)(F)C(F)(F)C(F)(F)C(F)(F)C(F)(F)I [1-Iodoperfluorooctane, reference compound]	160 °C
FC(F)(F)C(F)(F)C(F)(F)C(F)(F)F [Decaflurobutane]	−5.8 °C
